Test results reported in US7902226B2, “Dehalogeno-compounds” (Daiichi Pharmaceutical Co., Ltd., priority 2000, dated 2011).
≈ marks a conversion by molar mass, not a printed value. Counter-ions that a name gives are not always drawn.

Key:
E. coli, NIHJ = experiment: Antibacterial activity (MIC), standard method of the Japan Society of Chemotherapy; type: cell-based; settings: Escherichia coli
Procedure: (§1) Antibacterial activities of the compounds of this invention were measured in accordance to the standard method designated by the Japan Society of Chemotherapy, with the results shown as MIC values (microgram/ml) units in the following table. For comparison with the MIC values of the compounds of this invention, MIC values of levofloxacin (LVFX), ciprofloxacin (CPFX) and 7-[3-(R)-(1-aminocyclopropyl)pyrrolidin-1-yl]-6-fluoro-1-[2-(S)-fluoro-1-(R)-cyclopropyl]-8-methyl-1,4-dihydro-4-oxoquinoline-3-carboxylic acid (Reference drug 1), which is described in PCT/JP96/00208, are also shown in the table.

K. pneumoniae, Type 1 = experiment: as above; type: cell-based; settings: Klebsiella pneumoniae, TYPE1
Procedure: as §1

Pr. vulgalis, 08601 = experiment: as above; type: cell-based
Procedure: as §1

Ps. aeruginosa, 32104 = experiment: as above; type: cell-based; settings: Pseudomonas aeruginosa
Procedure: as §1

Ps. aeruginosa, 32121 = experiment: as above; type: cell-based; settings: Pseudomonas aeruginosa
Procedure: as §1

[1] = tested on: Ps. maltophilia, IID-1275; experiment: as above; type: cell-based; settings: Stenotrophomonas maltophilia, IID1275
Procedure: as §1

S. aureus, 209P = experiment: as above; type: cell-based; settings: Staphylococcus aureus
Procedure: as §1

S. aureus, 870307 = experiment: as above; type: cell-based; settings: Staphylococcus aureus
Procedure: as §1

S. epidermidis, 56500 = experiment: as above; type: cell-based; settings: Staphylococcus epidermidis
Procedure: as §1

S. flexneri, 2A 5503 = experiment: as above; type: cell-based; settings: Shigella flexneri, 2A5503
Procedure: as §1

Ser. marcescens, 10100 = experiment: as above; type: cell-based; settings: Serratia marcescens
Procedure: as §1

[2] = tested on: Str. faecalis, ATCC 19433; experiment: as above; type: cell-based; settings: Enterococcus faecalis, ATCC19433
Procedure: as §1

Str. pneumoniae J24 = experiment: as above; type: cell-based; settings: Streptococcus pneumoniae
Procedure: as §1

Str. pyogenes, G-36 = experiment: as above; type: cell-based; settings: Streptococcus pyogenes, G36
Procedure: as §1

Row | Compound | melting point | MIC (E. coli, NIHJ) | MIC (K. pneumoniae, Type 1) | MIC (Pr. vulgalis, 08601) | MIC (Ps. aeruginosa, 32104) | MIC (Ps. aeruginosa, 32121) | MIC [1] | MIC (S. aureus, 209P) | MIC (S. aureus, 870307) | MIC (S. epidermidis, 56500) | MIC (S. flexneri, 2A 5503) | MIC (Ser. marcescens, 10100) | MIC [2] | MIC (Str. pneumoniae J24) | MIC (Str. pyogenes, G-36)
1 | Cc1c(N2CC[C@@H](C3(N)CC3)C2)ccc2c(=O)c(C(=O)O)cn([C@@H]3C[C@@H]3F)c12 (as salt: HCl) (hydrate or solvate) [Example 1, 7-[3-(R)-(1-aminocyclopropyl)pyrrolidin-1-yl]-1-[2-(S)-fluoro-1-(R)-cyclopropyl]-1,4-dihydro-8-methyl-4-oxoquinoline-3-carboxylic acid] | 228 to 230 °C | – | – | – | – | – | – | – | – | – | – | – | – | – | –
2 | C[C@H]1COc2c(N3CC[C@@H](C4(N)CC4)C3)ccc3c(=O)c(C(=O)O)cn1c23 (as salt: salt) [Example 9, 10-[3-(R)-(1-aminocyclopropyl)pyrrolidin-1-yl]-2,3-dihydro-3-(S)-methyl-7-oxo-7H-pyrido[1,2,3-de][1,4]benzoxazine-6-carboxylic acid] | 249 to 252 °C (dec.) | – | – | – | – | – | – | – | – | – | – | – | – | – | –
3 | COc1c(N2CC[C@@H](C3(N)CCC3)C2)ccc2c(=O)c(C(=O)O)cn([C@@H]3C[C@@H]3F)c12 (hydrate or solvate) [Example 19, 7-[3-(R)-(1-aminocyclobutyl)pyrrolidin-1-yl]-1-[2-(S)-fluoro-1-(R)-cyclopropyl]-8-methoxy-1,4-dihydro-4-oxoquinoline-3-carboxylic acid] | 174 °C | – | – | – | – | – | – | – | – | – | – | – | – | – | –
4 | O=C(O)c1cn(C2CC2)c2cc(N3CCNCC3)c(F)cc2c1=O [CPFX, ciprofloxacin, reference compound] | – | ≤ 0.003 µg/mL | 0.025 µg/mL (≈ 0.0754 µM) | ≤ 0.003 µg/mL | 0.005 µg/mL (≈ 0.0151 µM) | 0.025 µg/mL (≈ 0.0754 µM) | 0.78 µg/mL (≈ 2.35 µM) | 0.1 µg/mL (≈ 0.302 µM) | 3.13 µg/mL (≈ 9.45 µM) | 0.2 µg/mL (≈ 0.604 µM) | 0.006 µg/mL (≈ 0.0181 µM) | 0.025 µg/mL (≈ 0.0754 µM) | 0.78 µg/mL (≈ 2.35 µM) | 0.1 µg/mL (≈ 0.302 µM) | 1.56 µg/mL (≈ 4.71 µM)
5 | COc1c(N2CC[C@@H](C3(N)CC3)C2)ccc2c(=O)c(C(=O)O)cn([C@@H]3C[C@@H]3F)c12 [Example 2, 7-[3-(R)-(1-aminocyclopropyl)pyrrolidin-1-yl]-1-[2-(S)-fluoro-1-(R)-cyclopropyl]-1,4-dihydro-8-methoxy-4-oxoquinoline-3-carboxylic acid] | – | ≤ 0.003 µg/mL | 0.05 µg/mL (≈ 0.125 µM) | 0.012 µg/mL (≈ 0.0299 µM) | 0.2 µg/mL (≈ 0.498 µM) | 0.05 µg/mL (≈ 0.125 µM) | 0.2 µg/mL (≈ 0.498 µM) | ≤ 0.003 µg/mL | 0.05 µg/mL (≈ 0.125 µM) | 0.012 µg/mL (≈ 0.0299 µM) | 0.012 µg/mL (≈ 0.0299 µM) | 0.1 µg/mL (≈ 0.249 µM) | 0.025 µg/mL (≈ 0.0623 µM) | 0.006 µg/mL (≈ 0.0149 µM) | 0.006 µg/mL (≈ 0.0149 µM)
6 | Cc1c(N2CC[C@@H](C3(N)CC3)C2)ccc2c(=O)c(C(=O)O)cn(C3CC3)c12 [Example 3, 7-[3-(R)-(1-aminocyclopropyl)pyrrolidin-1-yl]-1-cyclopropyl-1,4-dihydro-8-methyl-4-oxoquinoline-3-carboxylic acid] | 230 to 233 °C | ≤ 0.003 µg/mL | 0.012 µg/mL (≈ 0.0327 µM) | ≤ 0.003 µg/mL | 0.05 µg/mL (≈ 0.136 µM) | 0.025 µg/mL (≈ 0.068 µM) | 0.05 µg/mL (≈ 0.136 µM) | ≤ 0.003 µg/mL | 0.025 µg/mL (≈ 0.068 µM) | 0.003 µg/mL (≈ 0.00816 µM) | ≤ 0.003 µg/mL | 0.025 µg/mL (≈ 0.068 µM) | 0.012 µg/mL (≈ 0.0327 µM) | ≤ 0.003 µg/mL | 0.003 µg/mL (≈ 0.00816 µM)
7 | NC1([C@@H]2CCN(c3ccc4c(=O)c(C(=O)O)cn([C@@H]5C[C@@H]5F)c4n3)C2)CC1 [Example 4, 7-[3-(R)-(1-aminocyclopropyl)pyrrolidin-1-yl]-1-[2-(S)-fluoro-1-(R)-cyclopropyl]-1,4-dihydro-4-oxo-1,8-naphthylidine-3-carboxylic acid] | 216 to 218 °C | – | – | – | – | – | – | – | – | – | – | – | – | – | –
8 | NC1([C@@H]2CCN(c3ccc4c(=O)c(C(=O)O)cn([C@@H]5C[C@@H]5F)c4c3)C2)CC1 [Example 5, 7-[3-(R)-(1-aminocyclopropyl)pyrrolidin-1-yl]-1-[2-(S)-fluoro-1-(R)-cyclopropyl]-1,4-dihydro-4-oxoquinoline-3-carboxylic acid] | 251 to 253 °C | – | – | – | – | – | – | – | – | – | – | – | – | – | –
9 | NC1([C@@H]2CCN(c3ccc4c(=O)c(C(=O)O)cn(C5CC5)c4c3OC(F)F)C2)CC1 [Example 6, 7-[3-(R)-(1-aminocyclopropyl)pyrrolidin-1-yl]-1-cyclopropyl-8-difluoromethoxy-1,4-dihydro-4-oxoquinoline-3-carboxylic acid] | 206 to 207.5 °C | – | – | – | – | – | – | – | – | – | – | – | – | – | –
10 | Cc1c(N2CC[C@@H](C3(N)CC3)C2)cc(N)c2c(=O)c(C(=O)O)cn([C@@H]3C[C@@H]3F)c12 [Example 7, 5-amino-7-[3-(R)-(1-aminocyclopropyl)pyrrolidin-1-yl]-1-[2-(S)-fluoro-1-(R)-cyclopropyl]-1,4-dihydro-8-methyl-4-oxoquinoline-3-carboxylic acid] | 240 to 242 °C (dec.) | – | – | – | – | – | – | – | – | – | – | – | – | – | –
11 | COc1c(N2CC[C@@H](C3(N)CC3)C2)cc(N)c2c(=O)c(C(=O)O)cn([C@@H]3C[C@@H]3F)c12 [Example 8, 5-amino-7-[3-(R)-(1-aminocyclopropyl)pyrrolidin-1-yl]-1-[2-(S)-fluoro-1-(R)-cyclopropyl]-1,4-dihydro-8-methoxy-4-oxoquinoline-3-carboxylic acid] | 172 to 178 °C (dec.) | – | – | – | – | – | – | – | – | – | – | – | – | – | –
12 | CNC1([C@@H]2CCN(c3ccc4c(=O)c(C(=O)O)cn([C@@H]5C[C@@H]5F)c4c3C)C2)CC1 [Example 10, 1-[2-(S)-fluoro-1-(R)-cyclopropyl]-8-methyl-7-[3-(R)-[1-(methylamino)cyclopropyl]pyrrolidin-1-yl]-1,4-dihydro-4-oxoquinoline-3-carboxylic acid] | 223 to 224 °C | ≤ 0.003 µg/mL | 0.025 µg/mL (≈ 0.0626 µM) | 0.006 µg/mL (≈ 0.015 µM) | 0.1 µg/mL (≈ 0.25 µM) | 0.025 µg/mL (≈ 0.0626 µM) | 0.1 µg/mL (≈ 0.25 µM) | ≤ 0.003 µg/mL | 0.025 µg/mL (≈ 0.0626 µM) | 0.006 µg/mL (≈ 0.015 µM) | 0.006 µg/mL (≈ 0.015 µM) | 0.05 µg/mL (≈ 0.125 µM) | 0.012 µg/mL (≈ 0.03 µM) | ≤ 0.003 µg/mL | ≤ 0.003 µg/mL
13 | CNC1([C@@H]2CCN(c3ccc4c(=O)c(C(=O)O)cn([C@@H]5C[C@@H]5F)c4c3OC)C2)CC1 [Example 11, 1-[2-(S)-fluoro-1-(R)-cyclopropyl]-8-methoxy-7-[3-(R)-[1-(methylamino)cyclopropyl]pyrrolidin-1-yl]-1,4-dihydro-4-oxoquinoline-3-carboxylic acid] | 213 to 215 °C | 0.006 µg/mL (≈ 0.0144 µM) | 0.1 µg/mL (≈ 0.241 µM) | 0.012 µg/mL (≈ 0.0289 µM) | 0.2 µg/mL (≈ 0.481 µM) | 0.1 µg/mL (≈ 0.241 µM) | 0.2 µg/mL (≈ 0.481 µM) | ≤ 0.003 µg/mL | 0.05 µg/mL (≈ 0.12 µM) | 0.012 µg/mL (≈ 0.0289 µM) | 0.012 µg/mL (≈ 0.0289 µM) | 0.2 µg/mL (≈ 0.481 µM) | 0.05 µg/mL (≈ 0.12 µM) | 0.006 µg/mL (≈ 0.0144 µM) | 0.012 µg/mL (≈ 0.0289 µM)
14 | CNC1([C@@H]2CCN(c3ccc4c(=O)c(C(=O)O)cn5c4c3OC[C@@H]5C)C2)CC1 [Example 13, 2,3-dihydro-3-(S)-methyl-10-[3-(R)-[1-(methylamino)cyclopropyl]pyrrolidin-1-yl]-7-oxo-7H-pyrido[1,2,3-de][1,4]benzoxazine-6-carboxylic acid] | 227 to 229 °C | – | – | – | – | – | – | – | – | – | – | – | – | – | –
15 | NC1([C@@H]2CCN(c3ccc4c(=O)c(C(=O)O)cn([C@@H]5C[C@@H]5F)c4c3Cl)C2)CC1 [Example 16, 7-[3-(R)-(1-aminocyclopropyl)pyrrolidin-1-yl]-8-chloro-1-[2-(S)-fluoro-1-(R)-cyclopropyl]-1,4-dihydro-4-oxoquinoline-3-carboxylic acid] | 128 to 130 °C | – | – | – | – | – | – | – | – | – | – | – | – | – | –
16 | Cc1c(N2CC[C@@H](C3(N)CC3)C2)cc(O)c2c(=O)c(C(=O)O)cn([C@@H]3C[C@@H]3F)c12 [Example 17, 7-[3-(R)-(1-aminocyclopropyl)pyrrolidin-1-yl]-1-[2-(S)-fluoro-1-(R)-cyclopropyl]-5-hydroxy-8-methyl-1,4-dihydro-4-oxoquinoline-3-carboxylic acid] | 203 to 206 °C | – | – | – | – | – | – | – | – | – | – | – | – | – | –
17 | N#Cc1c(N2CC[C@@H](C3(N)CC3)C2)ccc2c(=O)c(C(=O)O)cn([C@@H]3C[C@@H]3F)c12 [Example 18, 7-[3-(R)-(1-aminocyclopropyl)pyrrolidin-1-yl]-8-cyano-1-[2-(S)-fluoro-1-(R)-cyclopropyl]-1,4-dihydro-4-oxoquinoline-3-carboxylic acid] | 138 to 140 °C | – | – | – | – | – | – | – | – | – | – | – | – | – | –
18 | C[C@H]1COc2c(N3CCN(C)CC3)c(F)cc3c(=O)c(C(=O)O)cn1c23 [LVFX, levofloxacin, reference compound] | – | 0.012 µg/mL (≈ 0.0332 µM) | 0.1 µg/mL (≈ 0.277 µM) | 0.012 µg/mL (≈ 0.0332 µM) | 0.2 µg/mL (≈ 0.553 µM) | 0.1 µg/mL (≈ 0.277 µM) | 0.39 µg/mL (≈ 1.08 µM) | 0.2 µg/mL (≈ 0.553 µM) | > 6.25 µg/mL | 0.39 µg/mL (≈ 1.08 µM) | 0.025 µg/mL (≈ 0.0692 µM) | 0.1 µg/mL (≈ 0.277 µM) | 0.78 µg/mL (≈ 2.16 µM) | 0.78 µg/mL (≈ 2.16 µM) | 0.2 µg/mL (≈ 0.553 µM)
